The values below come from patent US20240335431A1, “1-H-PYRROLO[2,3-c]PYRIDINE COMPOUNDS” (Acerta Pharma B.V., priority 2023, published 2024).

Bounds are passed on as bounds.

Data set [1] can be described thus: Human hepatocyte intrinsic clearance assay. It counts as in vitro ADME. Conditions: human hepatocytes. In a few lines: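 Pooled 10-donor cryopreserved human hepatocytes in suspension (0.25×10^6 cells in 0.25 mL) incubated with test compound at […], 37° C. Samples taken 0.5–120 min and quenched in acetonitrile, parent remaining measured by LC-MS/MS. CLint ([…]) derived from slope of ln % remaining vs time.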

Data set [2] in a line: Caco-2 cell monolayers intrinsic permeation assay in the presence of efflux inhibitors. The format is in vitro ADME. Conditions: Caco-2, with efflux inhibitors. In a few lines: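 Caco-2 monolayers grown 14–18 days on Transwells; compound dosed apically in HBSS with efflux inhibitors (Zosuquidar, Benzbromarone, KO-143), inhibitors also basolateral, 37 °C with shaking. Sampled at 0, 45 and 120 min, analysed by LC/MS/MS; apical-to-basolateral Papp (cm/s) calculated.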
In general terms: Passage across Caco-2 layers is used to estimate intestinal permeability.

A word on the Papp A→B: it is how fast a substance crosses the layer from the apical side. Turning to `CCN(C(=O)c1cc(F)ccc1-n1cc(C(=O)C2CCN(C(=O)[C@H]3NC[C@@H]4C[C@@H]43)CC2)c2ccncc21)C(C)C` [Example 28, 2-(3-(1-((1S,2S,5R)-3-Azabicyclo[3.1.0]hexane-2-carbonyl)piperidine-4-carbonyl)-1H-pyrrolo[2,3-c]pyridin-1-yl)-N-ethyl-5-fluoro-N-isopropylbenzamide], the “HH CLint” value in data set [1] is less than 1.0 μl/min/1E6. The Papp A→B in data set [2] amounted to 1.1 ×10⁻⁶ cm/s.
Take `CCN(C(=O)c1cc(F)ccc1-n1cc(C(=O)C2CCN(C(=O)[C@H]3N[C@@H]4CC[C@H]3C4)CC2)c2ccncc21)C(C)C` [Example 31, 2-(3-(1-((1R,3S,4S)-2-Azabicyclo[2.2.1]heptane-3-carbonyl)piperidine-4-carbonyl)-1H-pyrrolo[2,3-c]pyridin-1-yl)-N-ethyl-5-fluoro-N-isopropylbenzamide]: in data set [1], the “HH CLint” value is given as less than 1.0 μl/min/1E6. Further, in data set [2], the apical-to-basolateral permeability (Papp A→B) was 0.1 ×10⁻⁶ cm/s.
As for `CC(C)n1nccc1-c1cc(F)ccc1-n1cc(C(=O)C2CCN(C(=O)[C@H]3N[C@@H]4CC[C@H]3C4)CC2)c2ccncc21` [Example 36, (1-((1R,3S,4S)-2-Azabicyclo[2.2.1]heptane-3-carbonyl)piperidin-4-yl)(1-(4-fluoro-2-(1-isopropyl-1H-pyrazol-5-yl)phenyl)-1H-pyrrolo[2,3-c]pyridin-3-yl)methanone], the “HH CLint” value in data set [1] is given as less than 1.0 μl/min/1E6. Besides, in data set [2], the Papp A→B turned out to be 0.6 ×10⁻⁶ cm/s.
Consider `CC(C)c1ncncc1-c1cc(F)ccc1-n1cc(C(=O)C2CCN(C(=O)[C@H]3N[C@@H]4CC[C@H]3C4)CC2)c2ccncc21` [Example 37, (1-((1R,3S,4S)-2-Azabicyclo[2.2.1]heptane-3-carbonyl)piperidin-4-yl)(1-(4-fluoro-2-(4-isopropylpyrimidin-5-yl)phenyl)-1H-pyrrolo[2,3-c]pyridin-3-yl)methanone], for which the “HH CLint” value in data set [1] was less than 1.0 μl/min/1E6. For the same molecule, the Papp A→B in data set [2] is 1 ×10⁻⁶ cm/s.
In the case of `CC(C)c1ncccc1-c1cc(F)ccc1-n1cc(C(=O)C2CCN(C(=O)[C@H]3N[C@@H]4CC[C@H]3C4)CC2)c2ccncc21` [Example 38, (1-((1R,3S,4S)-2-Azabicyclo[2.2.1]heptane-3-carbonyl)piperidin-4-yl)(1-(4-fluoro-2-(2-isopropylpyridin-3-yl)phenyl)-1H-pyrrolo[2,3-c]pyridin-3-yl)methanone], in data set [1], the “HH CLint” value is on record as less than 1.0 μl/min/1E6. Further, the Papp A→B in data set [2] is 1.5 ×10⁻⁶ cm/s.
Consider `O=C(c1cn(-c2ccc(F)cc2-c2cncnc2C2CC2)c2cnccc12)C1CCN(C(=O)[C@H]2N[C@@H]3CC[C@H]2C3)CC1` [Example 40, (1-((1R,3S,4S)-2-Azabicyclo[2.2.1]heptane-3-carbonyl)piperidin-4-yl)(1-(2-(4-cyclopropylpyrimidin-5-yl)-4-fluorophenyl)-1H-pyrrolo[2,3-c]pyridin-3-yl)methanone], for which the “HH CLint” value in data set [1] was less than 1.0 μl/min/1E6. In addition, the Papp A→B in data set [2] amounted to 0.3 ×10⁻⁶ cm/s.
As to `CC(C)c1ccncc1-c1cc(F)ccc1-n1cc(C(=O)C2CCN(C(=O)[C@H]3N[C@@H]4CC[C@H]3C4)CC2)c2ccncc21` [Example 41, (1-((1R,3S,4S)-2-Azabicyclo[2.2.1]heptane-3-carbonyl)piperidin-4-yl)(1-(4-fluoro-2-(4-isopropylpyridin-3-yl)phenyl)-1H-pyrrolo[2,3-c]pyridin-3-yl)methanone], the “HH CLint” value in data set [1] is given as 1.7 μl/min/1E6. Also, the Papp A→B in data set [2] stood at 0.5 ×10⁻⁶ cm/s.
With `CC(C)c1ncsc1-c1cc(F)ccc1-n1cc(C(=O)C2CCN(C(=O)[C@H]3N[C@@H]4CC[C@H]3C4)CC2)c2ccncc21.O=CO` [Example 42, (1-((1R,3S,4S)-2-Azabicyclo[2.2.1]heptane-3-carbonyl)piperidin-4-yl)(1-(4-fluoro-2-(4-isopropylthiazol-5-yl)phenyl)-1H-pyrrolo[2,3-c]pyridin-3-yl)methanone 1·formic acid], in data set [1], the “HH CLint” value is recorded as 2.5 μl/min/1E6. For the same molecule, the Papp A→B in data set [2] worked out at 1.3 ×10⁻⁶ cm/s.
In the case of `CCN(C(=O)c1cc(F)ccc1-n1c(C)c(C(=O)C2CCN(C(=O)[C@H]3N[C@@H]4CC[C@H]3C4)CC2)c2ccncc21)C(C)C` [Example 46, 2-(3-(1-((1R,3S,4S)-2-Azabicyclo[2.2.1]heptane-3-carbonyl)piperidine-4-carbonyl)-2-methyl-1H-pyrrolo[2,3-c]pyridin-1-yl)-N-ethyl-5-fluoro-N-isopropylbenzamide], the “HH CLint” value in data set [1] is given as less than 1.0 μl/min/1E6. The Papp A→B in data set [2] was found to be 0.3 ×10⁻⁶ cm/s.
For the molecule `CCN(C(=O)c1cc(F)ccc1-n1c(C)c(C(=O)C2CCN(C(=O)[C@H]3NC[C@@H]4C[C@@H]43)CC2)c2ccncc21)C(C)C` [Example 47, 2-(3-(1-((1S,2S,5R)-3-Azabicyclo[3.1.0]hexane-2-carbonyl)piperidine-4-carbonyl)-2-methyl-1H-pyrrolo[2,3-c]pyridin-1-yl)-N-ethyl-5-fluoro-N-isopropylbenzamide], in data set [1], the “HH CLint” value is listed as 2.1 μl/min/1E6. Moreover, in data set [2], the apparent permeability from apical to basolateral (Papp A→B) came out at 1.9 ×10⁻⁶ cm/s.
On to `Cc1c(C(=O)C2CCN(C(=O)[C@H]3NC[C@@H]4C[C@@H]43)CC2)c2ccncc2n1-c1ccc(F)cc1-c1cnccc1C(C)C` [Example 54, (1-((1S,2S,5R)-3-Azabicyclo[3.1.0]hexane-2-carbonyl)piperidin-4-yl)(1-(4-fluoro-2-(4-isopropylpyridin-3-yl)phenyl)-2-methyl-1H-pyrrolo[2,3-c]pyridin-3-yl)methanone], for which the “HH CLint” value in data set [1] is 6.4 μl/min/1E6. Moreover, the Papp A→B in data set [2] was 4 ×10⁻⁶ cm/s.
